Test results reported in US5270302A, “Derivatives of tetrapeptides as CCK agonists” (priority 1991, dated 1993).
Counter-ions that a name gives are not always drawn. Like-named read-outs stand apart in the source and are kept apart here. *1 amine or outer side, *2 acyl side, *3 side chain or, on linkers, in order; H or OH if unused. Where a SMILES comes first, the peptide text is derived from it. Side-chain parts run from the residue outwards. [ ]: non-standard residue; d: D form. The star is where a group is joined. Propanoyl(3,3-Ph2) = O=C(CC(c1ccccc1)c1ccccc1)*; Acryloyl(3-(pyridin-3-yl)) = O=C(C=Cc1cccnc1)*; 2Naphthoyl(6-OH) = O=C(c1ccc2cc(O)ccc2c1)*; NMeW = CN[C@@H](Cc1c[nH]c2ccccc12)C(=O)O; Adoc = O=C(OC12CC3CC(CC(C3)C1)C2)*; NMeF = CN[C@@H](Cc1ccccc1)C(=O)O; NMeD = CN[C@@H](CC(=O)O)C(=O)O; NH(2-Me-phenyl) = Cc1ccccc1N*; X17 = O=C(C=Cc1ccccc1O)*; PhAc = O=C(Cc1ccccc1)*; Boc = CC(C)(C)OC(=O)*; CO = O=C([*:1])[*:2]; Tfa = O=C(C(F)(F)F)*; X6 = O=C(Oc1ccccc1)*; Bz = O=C(c1ccccc1)*; NHPh = c1ccc(N*)cc1

Experiments:
Type-A CCK receptor = target: T1, Type-A CCK receptor (Cavia porcellus, UniProt Q63931); assay: Radioligand binding of [125I]BH-CCK-8 in guinea pig pancreatic membrane preparations
T1 construct: Cortical and pancreatic membranes were prepared as described; from tissue; host or cells: guinea pig pancreas membranes
T1 sequence (Q63931 1-430): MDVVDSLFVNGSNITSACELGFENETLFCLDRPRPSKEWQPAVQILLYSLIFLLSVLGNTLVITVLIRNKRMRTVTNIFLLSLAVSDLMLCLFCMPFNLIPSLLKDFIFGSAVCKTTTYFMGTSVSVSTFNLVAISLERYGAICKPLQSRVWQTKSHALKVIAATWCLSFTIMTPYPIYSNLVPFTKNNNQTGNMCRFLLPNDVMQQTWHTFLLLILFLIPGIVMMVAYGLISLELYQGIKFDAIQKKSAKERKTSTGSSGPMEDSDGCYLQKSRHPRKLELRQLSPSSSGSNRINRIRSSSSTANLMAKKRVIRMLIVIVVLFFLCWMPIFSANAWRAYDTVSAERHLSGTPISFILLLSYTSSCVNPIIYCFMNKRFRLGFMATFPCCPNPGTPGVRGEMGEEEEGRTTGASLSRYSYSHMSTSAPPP
Outline: (§1)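 Membranes came from male guinea pig pancreas (type A) or cerebral cortex (type B) and were resuspended in pH 7.4 HEPES-EGTA-salt buffer containing bestatin and phosphoramidon. Test compounds competed with [125I]BH-CCK-8 in 0.1% BSA: cortex 150 min at 30 °C, pancreas 150 min at 37 °C. Reactions ended by filtration; IC50 from Hill analysis.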

Type-B CCK receptor = target: T2, Type-B CCK receptor (Cavia porcellus, UniProt H0VZC5); assay: Radioligand binding of [125I]BH-CCK-8 in guinea pig cerebral cortical membrane preparations
T2 construct: Cortical and pancreatic membranes were prepared as described; from tissue; host or cells: guinea pig cerebral cortex membranes
T2 sequence (H0VZC5 1-426): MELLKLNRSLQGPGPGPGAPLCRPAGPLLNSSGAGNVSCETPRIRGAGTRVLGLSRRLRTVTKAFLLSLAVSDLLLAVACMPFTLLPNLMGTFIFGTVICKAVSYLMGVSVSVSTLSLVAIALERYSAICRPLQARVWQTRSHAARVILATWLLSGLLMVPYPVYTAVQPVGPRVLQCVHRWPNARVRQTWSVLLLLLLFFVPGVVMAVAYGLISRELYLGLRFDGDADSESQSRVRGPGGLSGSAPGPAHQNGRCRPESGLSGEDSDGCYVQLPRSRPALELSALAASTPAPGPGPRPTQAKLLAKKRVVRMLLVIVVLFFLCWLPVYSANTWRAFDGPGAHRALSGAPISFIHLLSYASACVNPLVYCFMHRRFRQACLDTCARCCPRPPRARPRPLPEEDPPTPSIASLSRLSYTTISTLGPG
Outline: as §1

[1] = IC50 (nM) 125I-BH-CCK-8 Type-A receptor, guinea pig pancreatic membranes, 37° C., 150 min
[2] = IC50 (nM) 125I-BH-CCK-8 Type-B receptor, guinea pig cortical membranes, 30° C., 150 minutes
[3] = guinea pig pancreatic membranes, 37° C., 150 min, read-out: IC50 (nM) 125I-BH-CCK-8 Type-A receptor
[4] = guinea pig cortical membranes, 30° C., 150 minutes, read-out: IC50 (nM) 125I-BH-CCK-8 Type-B receptor

Row | IC50 (Type-A CCK receptor; [3]) | IC50 (Type-B CCK receptor; [4]) | SMILES | IC50 (Type-A CCK receptor; [1]) | IC50 (Type-B CCK receptor; [2]) | other results
1 |  |  | Cc1ccccc1NC(=O)NCCCC[C@H](NC(=O)[C@H](Cc1c[nH]c2ccccc12)NC(=O)C(F)(F)F)C(=O)N(C)[C@@H](CC(=O)O)C(=O)N[C@@H](Cc1ccccc1)C(N)=O [Example 88A, trifluoroacetyl-Trp-Lys(ε-N-(2-methylphenyl)aminocarbonyl)-(NMe)Asp-PheNH2] (Tfa-WK([CO-NH(2-Me-phenyl)])[NMeD]F-NH2) | 4.4 nM | > 10000 nM | 
2 |  |  | CN[C@@H](Cc1c[nH]c2ccccc12)C(=O)N[C@@H](CCCCNC(=O)Nc1ccccc1C)C(=O)N[C@@H](CC(=O)O)C(=O)N(C)[C@@H](Cc1ccccc1)C(N)=O [Example 101, (NMe)Trp-Lys(ε-N-(2-methylphenyl)aminocarbonyl)-Asp-(NMe)PheNH2] (H-[NMeW]K([CO-NH(2-Me-phenyl)])D[NMeF]-NH2) | 9.3 nM | 12000 nM | 
3 |  |  | Cc1ccccc1NC(=O)NCCCC[C@H](NC(=O)[C@H](Cc1c[nH]c2ccccc12)NC(=O)OC(C)(C)C)C(=O)N[C@@H](CC(=O)O)C(=O)N1CCC[C@]1(Cc1ccccc1)C(N)=O [Example 115, t-BOC-Trp-Lys(ε-N-(2-methylphenyl)aminocarbonyl)-Asp-(S)-α-benzylprolinamide] | 18 nM | > 10000 nM | 
4 | 81 nM | 200 nM | CC(C)(C)OC(=O)N[C@@H](Cc1c[nH]c2ccccc12)C(=O)N[C@@H](CCCCNC(=O)C=Cc1ccccc1O)C(=O)N[C@@H](CC(=O)O)C(=O)N[C@@H](Cc1ccccc1)C(N)=O [Example 22, t-BOC-Trp-Lys(ε-N-(2-hydroxycinnamoyl))-Asp-PheNH2] (Boc-WK(X17)DF-NH2) |  |  | 
5 | 13 nM | > 10000 nM | Cc1ccccc1NC(=O)NCCCC[C@H](NC(=O)CCc1c[nH]c2ccccc12)C(=O)N[C@@H](CC(=O)O)C(=O)N(C)[C@@H](Cc1ccccc1)C(N)=O [Example 70, 3-(Indol-3-yl)propionyl-Lys(ε-N-(2-methylphenyl)aminocarbonyl)-Asp-(NMe)PheNH2] |  |  | 
6 |  |  | CNC(=O)N[C@@H](Cc1c[nH]c2ccccc12)C(=O)N[C@@H](CCCCNC(=O)Nc1ccccc1C)C(=O)N[C@@H](CC(=O)O)C(=O)N(C)[C@@H](Cc1ccccc1)C(N)=O [Example 83, Methylaminocarbonyl-Trp-Lys(ε-N-(2-methylphenyl)aminocarbonyl)-Asp-(NMe)PheNH2] ({NHMe-CO}-WK([CO-NH(2-Me-phenyl)])D[NMeF]-NH2) | 9.7 nM | 4900 nM | 
7 |  |  | CN[C@@H](Cc1c[nH]c2ccccc12)C(=O)N[C@@H](CCCCNC(=O)Nc1ccccc1C)C(=O)N(C)[C@@H](CC(=O)O)C(=O)N[C@@H](Cc1ccccc1)C(N)=O [Example 69, HCl-(NMe)Trp-Lys(ε-N-(2-methylphenyl)aminocarbonyl)-(NMe)Asp-PheNH2] (H-[NMeW]K([CO-NH(2-Me-phenyl)])[NMeD]F-NH2) | 14 nM |  | IC50 (Type-B CCK receptor): > 10000 nM
8 |  |  | CC(=O)N[C@@H](Cc1c[nH]c2ccccc12)C(=O)N[C@@H](CCCCNC(=O)Nc1ccccc1C)C(=O)N[C@@H](CC(=O)O)C(=O)N(C)[C@@H](Cc1ccccc1)C(N)=O [Example 85, Acetyl-Trp-Lys(ε-N-(2-methylphenyl)aminocarbonyl)-Asp-(NMe)PheNH2] (Ac-WK([CO-NH(2-Me-phenyl)])D[NMeF]-NH2) | 5.8 nM | 10000 nM | 
9 |  |  | Cc1ccccc1NC(=O)NCCCC[C@H](NC(=O)[C@H](Cc1c[nH]c2ccccc12)NC(=O)OC12CC3CC(CC(C3)C1)C2)C(=O)N[C@@H](CC(=O)O)C(=O)N(C)[C@@H](Cc1ccccc1)C(N)=O [Example 75, 1-Adamantyloxycarbonyl-Trp-Lys(ε-N-(2-methylphenyl)aminocarbonyl)-Asp-(NMe)PheNH2] (Adoc-WK([CO-NH(2-Me-phenyl)])D[NMeF]-NH2) |  |  | IC50 (Type-A CCK receptor): 17 nM; IC50 (Type-B CCK receptor): 10000 nM
10 |  |  | Cc1ccccc1NC(=O)NCCCC[C@H](NC(=O)[C@H](Cc1c[nH]c2ccccc12)NC(=O)c1ccccc1)C(=O)N(C)[C@@H](CC(=O)O)C(=O)N[C@@H](Cc1ccccc1)C(N)=O [Example 90, Benzoyl-Trp-Lys(ε-N-(2-methylphenyl)aminocarbonyl)-(NMe)Asp-PheNH2] (Bz-WK([CO-NH(2-Me-phenyl)])[NMeD]F-NH2) | 2.7 nM | 5100 nM | 
11 | 14 nM | 10000 nM | Cc1ccccc1NC(=O)NCCCC[C@H](NC(=O)C(F)Cc1c[nH]c2ccccc12)C(=O)N[C@@H](CC(=O)O)C(=O)N(C)[C@@H](Cc1ccccc1)C(N)=O (stereo partly shown) [Example 108, (2-Fluoro-3-(3-indolyl)propionyl)-Lys(ε-N-(2-methylphenyl)aminocarbonyl)-Asp-(NMe)PheNH2] |  |  | 
12 | 77 nM | > 10000 nM | Cc1ccccc1NC(=O)NCCCC[C@H](NC(=O)CCc1cccc2ccccc12)C(=O)N[C@@H](CC(=O)O)C(=O)N(C)[C@@H](Cc1ccccc1)C(N)=O [Example 111, (3-(α-Naphthyl)propionyl)-Lys(ε-N-(2-methylphenyl)aminocarbonyl)-Asp-(NMe)PheNH2] |  |  | 
13 | 40 nM | 8300 nM | CN(C(=O)[C@H](CCCCNC(=O)C=Cc1cccnc1)NC(=O)[C@H](Cc1c[nH]c2ccccc12)NC(=O)OC(C)(C)C)[C@@H](CC(=O)O)C(=O)N[C@@H](Cc1ccccc1)C(N)=O [Example 67, t-BOC-Trp-Lys-(ε-N-3-(3-pyridyl)acrylyl)-(NMe)Asp-PheNH2] (Boc-WK(Acryloyl(3-(pyridin-3-yl)))[NMeD]F-NH2) |  |  | 
14 |  |  | Cc1ccccc1NC(=O)NCCCC[C@H](NC(=O)[C@H](Cc1c[nH]c2ccccc12)NC(=O)c1ccccc1)C(=O)N[C@@H](CC(=O)O)C(=O)N(C)[C@@H](Cc1ccccc1)C(N)=O [Example 89, Benzoyl-Trp-Lys(ε-N-(2-methylphenyl)aminocarbonyl)-Asp-(NMe)PheNH2] (Bz-WK([CO-NH(2-Me-phenyl)])D[NMeF]-NH2) | 1.8 nM | 4600 nM | 
15 |  |  | Cc1ccccc1NC(=O)NCCCC[C@H](NC(=O)[C@H](Cc1c[nH]c2ccccc12)NC(=O)Cc1ccccc1)C(=O)N[C@@H](CC(=O)O)C(=O)N(C)[C@@H](Cc1ccccc1)C(N)=O [Example 91, Phenylacetyl-Trp-Lys(ε-N-(2-methylphenyl)aminocarbonyl)-Asp-(NMe)PheNH2] (PhAc-WK([CO-NH(2-Me-phenyl)])D[NMeF]-NH2) | 19 nM | > 10000 nM | 
16 | 200 nM | 4100 nM | Cc1ccccc1NC(=O)NCCCC[C@H](NC(=O)C(C)Cc1c[nH]c2ccccc12)C(=O)N[C@@H](CC(=O)O)C(=O)N(C)[C@@H](Cc1ccccc1)C(N)=O (stereo partly shown) [Example 104, (2-Methyl-3-(3-indolyl)propionyl)-Lys(ε-N-(2-methylphenyl)aminocarbonyl)-Asp-(NMe)PheNH2] |  |  | 
17 |  |  | Cc1ccccc1NC(=O)NCCCC[C@H](NC(=O)[C@H](Cc1c[nH]c2ccccc12)NC(=O)Nc1ccccc1)C(=O)N[C@@H](CC(=O)O)C(=O)N(C)[C@@H](Cc1ccccc1)C(N)=O [Example 84, Phenylaminocarbonyl-Trp-Lys(ε-N-(2-methylphenyl)aminocarbonyl)-Asp-(NMe)PheNH2] ({NHPh-CO}-WK([CO-NH(2-Me-phenyl)])D[NMeF]-NH2) | 3 nM | 3000 nM | 
18 |  |  | Cc1ccccc1NC(=O)NCCCC[C@H](NC(=O)[C@H](Cc1c[nH]c2ccccc12)NC(=O)CC(c1ccccc1)c1ccccc1)C(=O)N[C@@H](CC(=O)O)C(=O)N(C)[C@@H](Cc1ccccc1)C(N)=O [Example 92, (3,3-Diphenylpropionyl)-Trp-Lys(ε-N-(2-methylphenyl)aminocarbonyl)-Asp-(NMe)PheNH2] ({Propanoyl(3,3-Ph2)}-WK([CO-NH(2-Me-phenyl)])D[NMeF]-NH2) |  |  | IC50 (Type-A CCK receptor): 5.6 nM; IC50 (Type-B CCK receptor): 5000 nM
19 | 15 nM | 3700 nM | CN(C(=O)[C@H](CCCCNC(=O)c1ccc2cc(O)ccc2c1)NC(=O)[C@H](Cc1c[nH]c2ccccc12)NC(=O)OC(C)(C)C)[C@@H](CC(=O)O)C(=O)N(C)[C@@H](Cc1ccccc1)C(N)=O [Example 73] (Boc-WK(2Naphthoyl(6-OH))[NMeD][NMeF]-NH2) |  |  | 
20 |  |  | Cc1ccccc1NC(=O)NCCCC[C@H](NC(=O)[C@H](Cc1c[nH]c2ccccc12)NC(=O)Oc1ccccc1)C(=O)N[C@@H](CC(=O)O)C(=O)N(C)[C@@H](Cc1ccccc1)C(N)=O [Example 79, Phenoxycarbonyl-Trp-Lys(ε-N-(2-methylphenyl)aminocarbonyl)-Asp-(NMe)PheNH2] (X6-WK([CO-NH(2-Me-phenyl)])D[NMeF]-NH2) |  |  | IC50 (Type-A CCK receptor): 10 nM; IC50 (Type-B CCK receptor): 7200 nM
